Test results from PubChem BioAssay (NCI).
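GI50 is the concentration that inhibits growth by half. TGI denotes the concentration required for complete inhibition of growth.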

What was measured:
Experiment in all cases: growth of human tumour cells (NCI), 384-well format
786-0 renal = system: 786-0 renal
A498 renal = system: A498 renal
A549 NSCLC = system: A549 NSCLC
ACHN renal = system: ACHN renal
BT-549 breast = system: BT-549 breast
CAKI-1 renal = system: CAKI-1 renal
CCRF-CEM leukemia = system: CCRF-CEM leukemia
COLO 205 colon = system: COLO 205 colon
DU-145 prostate = system: DU-145 prostate
EKVX NSCLC = system: EKVX NSCLC
HCT-116 colon = system: HCT-116 colon
HCT-15 colon = system: HCT-15 colon
HL-60(TB) leukemia = system: HL-60(TB) leukemia
HOP-62 NSCLC = system: HOP-62 NSCLC
HOP-92 NSCLC = system: HOP-92 NSCLC
HS 578T breast = system: HS 578T breast
HT29 colon = system: HT29 colon
IGROV1 ovarian = system: IGROV1 ovarian
KM12 colon = system: KM12 colon
LOX IMVI melanoma = system: LOX IMVI melanoma
M14 melanoma = system: M14 melanoma
MALME-3M melanoma = system: MALME-3M melanoma
MCF7 breast = system: MCF7 breast
MDA-MB-231 breast = system: MDA-MB-231 breast
MDA-MB-435 melanoma = system: MDA-MB-435 melanoma
MDA-MB-468 breast = system: MDA-MB-468 breast
MOLT-4 leukemia = system: MOLT-4 leukemia
NCI-H226 lung = system: NCI-H226 lung
NCI-H23 lung = system: NCI-H23 lung
NCI-H322M lung = system: NCI-H322M lung
NCI-H460 NSCLC = system: NCI-H460 NSCLC
NCI-H522 lung = system: NCI-H522 lung
NCI/ADR-RES ovarian = system: NCI/ADR-RES ovarian
OVCAR-3 ovarian = system: OVCAR-3 ovarian
OVCAR-4 ovarian = system: OVCAR-4 ovarian
OVCAR-5 ovarian = system: OVCAR-5 ovarian
OVCAR-8 ovarian = system: OVCAR-8 ovarian
PC-3 prostate = system: PC-3 prostate
RPMI-8226 leukemia = system: RPMI-8226 leukemia
RXF 393 renal = system: RXF 393 renal
SF-268 CNS = system: SF-268 CNS
SF-295 CNS = system: SF-295 CNS
SF-539 CNS = system: SF-539 CNS
SK-MEL-28 melanoma = system: SK-MEL-28 melanoma
SK-MEL-5 melanoma = system: SK-MEL-5 melanoma
SK-OV-3 ovarian = system: SK-OV-3 ovarian
SN12C renal = system: SN12C renal
SNB-19 CNS = system: SNB-19 CNS
SNB-75 CNS = system: SNB-75 CNS
SR leukemia = system: SR leukemia
SW-620 colon = system: SW-620 colon
T-47D breast = system: T-47D breast
TK-10 renal = system: TK-10 renal
U251 glioblastoma = system: U251 glioblastoma
UACC-257 melanoma = system: UACC-257 melanoma
UACC-62 melanoma = system: UACC-62 melanoma
UO-31 renal = system: UO-31 renal

`COc1cc(N2CCC(N3CCN(C)CC3)CC2)ccc1Nc1ncc(Cl)c(Nc2ccccc2P(C)(C)=O)n1` showed a GI50 (786-0 renal) of 3.22 µM, a TGI (786-0 renal) greater than 43.8 µM and a GI50 (A498 renal) of 2.32 µM. It also gave a TGI (A498 renal) of 6.1 µM, a GI50 (A549 NSCLC) of 2.1 µM and a TGI (A549 NSCLC) greater than 23.4 µM. For the same compound, the GI50 (ACHN renal) was 3.21 µM, the TGI (ACHN renal) was greater than 43.9 µM and the GI50 (BT-549 breast) was 2.28 µM. It also gave a TGI (BT-549 breast) of 5.08 µM, a GI50 (CAKI-1 renal) of 2.38 µM and a TGI (CAKI-1 renal) of 6.28 µM. It also gave a GI50 (CCRF-CEM leukemia) of 3.45 µM, a TGI (CCRF-CEM leukemia) of 9.7 µM and a GI50 (COLO 205 colon) of 1.65 µM. The TGI (COLO 205 colon) was 4 µM, the GI50 (DU-145 prostate) was 2.5 µM and the TGI (DU-145 prostate) was 10.5 µM. It also gave a GI50 (EKVX NSCLC) of 1.46 µM, a TGI (EKVX NSCLC) of 3.48 µM and a GI50 (HCT-116 colon) of 2.82 µM. For the same compound, the TGI (HCT-116 colon) was greater than 77 µM, the GI50 (HCT-15 colon) was 5.29 µM and the TGI (HCT-15 colon) was greater than 100 µM. It also gave a GI50 (HL-60(TB) leukemia) of 3.35 µM, a TGI (HL-60(TB) leukemia) greater than 35.6 µM and a GI50 (HOP-62 NSCLC) of 2.33 µM. The TGI (HOP-62 NSCLC) was greater than 50.2 µM, the GI50 (HOP-92 NSCLC) was 1.17 µM and the TGI (HOP-92 NSCLC) was 3 µM. It also gave a GI50 (HS 578T breast) of 1.86 µM, a TGI (HS 578T breast) of 4.89 µM and a GI50 (HT29 colon) of 1.11 µM. It also gave a TGI (HT29 colon) greater than 100 µM, a GI50 (IGROV1 ovarian) of 1.18 µM and a TGI (IGROV1 ovarian) of 3.7 µM. It also gave a GI50 (KM12 colon) of 3.74 µM, a TGI (KM12 colon) greater than 100 µM and a GI50 (LOX IMVI melanoma) of 3.07 µM. The TGI (LOX IMVI melanoma) was 17.8 µM, the GI50 (M14 melanoma) was 3.48 µM and the TGI (M14 melanoma) was greater than 100 µM. The GI50 (MALME-3M melanoma) was 3.09 µM, the TGI (MALME-3M melanoma) was greater than 66.9 µM and the GI50 (MCF7 breast) was 2.07 µM. The TGI (MCF7 breast) was greater than 100 µM, the GI50 (MDA-MB-231 breast) was 2.03 µM and the TGI (MDA-MB-231 breast) was 6.47 µM. It also gave a GI50 (MDA-MB-435 melanoma) of 25.5 µM, a TGI (MDA-MB-435 melanoma) greater than 100 µM and a GI50 (MDA-MB-468 breast) of 2.01 µM. For the same compound, the TGI (MDA-MB-468 breast) was 6.18 µM, the GI50 (MOLT-4 leukemia) was 1.9 µM and the TGI (MOLT-4 leukemia) was 4.1 µM. The GI50 (NCI-H226 lung) was 0.49 µM, the TGI (NCI-H226 lung) was 2.53 µM and the GI50 (NCI-H23 lung) was 1.87 µM. It also gave a TGI (NCI-H23 lung) of 5.19 µM, a GI50 (NCI-H322M lung) of 2.08 µM and a TGI (NCI-H322M lung) of 6.39 µM. It also gave a GI50 (NCI-H460 NSCLC) of 4.35 µM, a TGI (NCI-H460 NSCLC) greater than 100 µM and a GI50 (NCI-H522 lung) of 1.16 µM. It also gave a TGI (NCI-H522 lung) of 4.17 µM, a GI50 (NCI/ADR-RES ovarian) greater than 100 µM and a TGI (NCI/ADR-RES ovarian) greater than 100 µM. For the same compound, the GI50 (OVCAR-3 ovarian) was 2.22 µM, the TGI (OVCAR-3 ovarian) was greater than 28.5 µM and the GI50 (OVCAR-4 ovarian) was 2.41 µM. For the same compound, the TGI (OVCAR-4 ovarian) was 8.64 µM, the GI50 (OVCAR-5 ovarian) was 2.39 µM and the TGI (OVCAR-5 ovarian) was greater than 46.9 µM. For the same compound, the GI50 (OVCAR-8 ovarian) was 6.55 µM, the TGI (OVCAR-8 ovarian) was greater than 100 µM and the GI50 (PC-3 prostate) was 5.55 µM. The TGI (PC-3 prostate) was greater than 100 µM, the GI50 (RPMI-8226 leukemia) was 1.77 µM and the TGI (RPMI-8226 leukemia) was 5.38 µM. For the same compound, the GI50 (RXF 393 renal) was 2.09 µM, the TGI (RXF 393 renal) was 4.52 µM and the GI50 (SF-268 CNS) was 2.38 µM. For the same compound, the TGI (SF-268 CNS) was greater than 25.7 µM, the GI50 (SF-295 CNS) was 2.92 µM and the TGI (SF-295 CNS) was greater than 29.5 µM. For the same compound, the GI50 (SF-539 CNS) was 1.97 µM, the TGI (SF-539 CNS) was 4.23 µM and the GI50 (SK-MEL-28 melanoma) was greater than 100 µM. It also gave a TGI (SK-MEL-28 melanoma) greater than 100 µM, a GI50 (SK-MEL-5 melanoma) of 4.72 µM and a TGI (SK-MEL-5 melanoma) greater than 100 µM. It also gave a GI50 (SK-OV-3 ovarian) of 2.45 µM, a TGI (SK-OV-3 ovarian) of 5.89 µM and a GI50 (SN12C renal) of 2.3 µM. It also gave a TGI (SN12C renal) of 11.1 µM, a GI50 (SNB-19 CNS) of 5.97 µM and a TGI (SNB-19 CNS) greater than 100 µM. For the same compound, the GI50 (SNB-75 CNS) was 2.75 µM, the TGI (SNB-75 CNS) was 6.73 µM and the GI50 (SR leukemia) was 0.0248 µM. It also gave a TGI (SR leukemia) of 0.0545 µM, a GI50 (SW-620 colon) of 4.95 µM and a TGI (SW-620 colon) greater than 100 µM. The GI50 (T-47D breast) was greater than 25.8 µM, the TGI (T-47D breast) was greater than 100 µM and the GI50 (TK-10 renal) was 3.92 µM. The TGI (TK-10 renal) was greater than 100 µM, the GI50 (U251 glioblastoma) was 6.2 µM and the TGI (U251 glioblastoma) was greater than 100 µM. For the same compound, the GI50 (UACC-257 melanoma) was greater than 100 µM, the TGI (UACC-257 melanoma) was greater than 100 µM and the GI50 (UACC-62 melanoma) was 3.5 µM. For the same compound, the TGI (UACC-62 melanoma) was greater than 100 µM, the GI50 (UO-31 renal) was 4.2 µM and the TGI (UO-31 renal) was greater than 62 µM.
